Measurements from patent US10407445B2, “Hepatitis C virus inhibitors” (ENANTA PHARMACEUTICALS, INC., priority 2013, dated 2019).
Read-outs that look alike come from different tables or passages of the source.

Tests used:
Assay type in all cases: cell-based
[1] = tested on: HCV GT 3a replicon; experiment: HCV replicon assay, GT2a chimeric replicon expressing NS5A from GT3a strain S52; details: Hepatitis C virus
Protocol: (§1) The activity of compounds was determined against HCV replicons representing genotypes (GT) 1a, 1b, 2a, and 3a. To generate stable Huh-7.5-based cell lines, HCV replicons were engineered to express the Renilla luciferase reporter (hRluc) fused to the neomycin phosphotransferase (Neo) gene. GT2a and GT3a HCV replicons were based on the JFH-1 subgenomic replicon (Kato et al. 2003 Gastroenterology, 125:1808-1817), in which the NS5A gene was replaced with that of strains J6 and S52 (GT2a and G3a, respectively). The activity of compounds against GT1a replicons encoding NS5A mutations (M28T, Q30R, L31M, Y93C, and Y93H) was also determined in a transient replication assay. The parental GT1a and GT2a replicons (pH/SG-Neo(L+I) and pSG-Neo-JFH1, respectively) were licensed from Apath LLC (Saint Louis, Mo.). The parental GT 1b replicon (pFKi389lucubineo_3_3′_ET) was licensed from ReBLikon GmbH (Germany). HCV replicons were constructed by standard molecular biology techniques described below. All replicon constructs were verified by restriction enzyme digestion and DNA sequencing.
The plasmid pSG-hRlucNeo-JFH1 was generated from pSG-Neo-JFH1 (Kato et al. 2003, Gastroentrology 125:1808-1817). A fragment containing the JFH-1 5′ NTR—hRluc-Neo gene and two unique restriction sites (AgeI and PmeI) was synthesized (Integrated DNA Technologies, Coralville, Iowa). The resulting synthetic plasmid was digested with AgeI and PmeI and the excised fragment (5′NTR-hRluc-Neo) was ligated into pSG-Neo-JFH1 digested with the same enzymes to generate pSG-hRlucNeo-JFH1. To allow expression of heterologous NS5A sequences, an NS5A shuttle vector was generated from pSG-Neo-JFH1, in which the entire coding sequence of NS5A plus the first eight codons of NS5B were replaced with an AfeI restriction site. This was done by Infusion cloning (Clontech, Mountain View, Calif.) from two PCR products that were generated using pSG-Neo-JFH1 as a template and the following primer pairs:
Underlined sequences denote regions of overlap necessary for Infusion cloning. Purified PCR products were cloned directly into an NsiI/SnaBI digested pSG-Neo-JFH1 following the manufacturer's instructions to generate pSG-Neo-JFH1-5Ashuttle. The 2023 base pair AgeI/PmeI fragment from pSG-hRlucNeo-JFH1 was then ligated into pSG-Neo-JFH1-5Ashuttle to generate pSG-hRlucNeo-JFH1-5Ashuttle. To generate the 2a-2a-(J6) and 2a-3a-(S52) NS5A chimeric replicons, the full length NS5A sequences from GT2a strain J6 (accession AF177036) and GT3a strain S52 (accession GU814263), with the addition of the first eight codons of JFH-1 NS5B (5′-TCCATGTCATACTCCTGGACCGGG-3′), were synthesized by GeneArt (Life Technologies, Carlsbad Calif.). J6 and S52 NS5A sequences were then PCR amplified from the synthetic clones using the appropriate forward primer:
Underlined sequences denote regions of overlap with pSG-hRlucNeo-JFH1-5Ashuttle necessary for Infusion cloning. Purified PCR products were directly cloned into AfeI-digested shuttle vector by Infusion cloning following the manufacturer's instructions.
Stable HCV replicon cell lines were grown in complete media (Dulbecco's modified Eagle medium [DMEM], 2 mM L-glutamine, 0.1 mM essential amino acids, 1 mM sodium pyruvate, 10% heat inactivated fetal bovine serum) with the addition 500 μg/ml […] (G418). Huh7-lunet cells were maintained in the same medium without the addition of G418. Cells were routinely passaged at a dilution of 1:4 two times a week. The assay medium for both luciferase reporter HCV replicon and cytotoxicity assays used phenol red-free DMEM and lacked G418. For each stable replicon assay, a sixteen point half-log dilution series of compound was stamped (0.5 ul compound per well) into three replica 384-well plates, to which cells were added directly (4000 cells/well). […]

[2] = tested on: HCV GT 1b replicon; experiment: HCV replicon assay, stable GT 1b replicon (Renilla luciferase); details: Hepatitis C virus, GT1B, 72 h
Protocol: as §1
The hRluc-Neo cassette was PCR amplified from pF9 cytomegalovirus (CMV) hRluc-Neo Flexi(R) (Promega) using Accuprime Super Mix II (Invitrogen) and the following primers, which introduce restriction sites: […]
The amplification product was subcloned into pCR2.1-TOPO (Invitrogen). The resulting plasmid was digested with AscI and NotI, and the excised hRluc-Neo fragment was ligated using the Roche Quick Ligation Kit (Roche) into pFKi389lucubineo_3_3′_ET digested with the same enzymes.
Stable HCV replicon cell lines were grown in complete media (Dulbecco's modified Eagle medium [DMEM], 2 mM L-glutamine, 0.1 mM essential amino acids, 1 mM sodium pyruvate, 10% heat inactivated fetal bovine serum) with the addition 500 μg/ml […] (G418). Huh7-lunet cells were maintained in the same medium without the addition of G418. Cells were routinely passaged at a dilution of 1:4 two times a week. The assay medium for both luciferase reporter HCV replicon and cytotoxicity assays used phenol red-free DMEM and lacked G418. For each stable replicon assay, a sixteen point half-log dilution series of compound was stamped (0.5 ul compound per well) into three replica 384-well plates, to which cells were added directly (4000 cells/well). For the transient replication assay, Huh7-lunet cells in ice-cold phosphate buffered saline (PBS) were electroporated (BioRad electroporator; 950 uF, 270V) with 10 ug purified in vitro transcribed HCV replicon RNA, followed by resuspension in complete media and plating (8000 cells/well) into compound stamped 384-well plates. Luciferase activity of compound-treated cells was measured relative to DMSO-treated cells after 72 h incubation using RENILLA-GLO™ Luciferase Assay (Promega). Cytotoxicity (CC50) in the GT1b replicon cell line was analyzed using CELL TITER-GLO™ (Promega).
The compounds of the present invention can be effective against the HCV 1b genotype. It should also be understood that the compounds of the present invention can inhibit multiple genotypes of HCV. In one embodiment compound of the present invention are active against the 1a, 1b, 2a, 2b, 3a, 4a, and 5a genotypes. In another embodiment compound of the present invention are active against the HCV resistant mutants. […] EC50s are in pM against HCV GT 1a and GT 1b; and nM against GT 2a-J6, GT 3a and GT1a resistant variants (M28T, Q30R, L31V, Y93C and Y93H).

[3] = tested on: GT1a replicon encoding NS5A mutation L31V; experiment: Transient replication assay, GT1a replicon with NS5A mutation L31V; details: Hepatitis C virus

| Structure (SMILES) | EC50 ([1]; 72 h, read-out: EC50 3a) | EC50 [2] | EC50 ([3]; read-out: EC50 1a L31V) | EC50 ([1]; read-out: EC50 (nM) 3a) | EC50 ([3]; read-out: EC50 (nM) 1a L31V) |
| --- | --- | --- | --- | --- | --- |
| COC(=O)N[C@H](C(=O)N1C[C@@]2(CCOC2)C[C@H]1c1ncc(-c2ccc(-c3ccc4c(ccc5nc([C@@H]6CCCN6C(=O)[C@@H](NC(=O)OC)C(C)C)[nH]c54)c3)cc2)[nH]1)C(C)C [Compound 50] | 10 nM | 0.016 nM | 1 nM | – | – |
| COC(=O)N[C@H](C(=O)N1C[C@]2(CCCOC2)C[C@H]1c1ncc(-c2ccc(-c3ccc4c(ccc5nc([C@@H]6C[C@@H]7CCC[C@@H]7N6C(=O)[C@@H](NC(=O)OC)C(C)C)[nH]c54)c3)cc2)[nH]1)C(C)C [Compound 16] | 0.8 nM | 0.01 nM | 0.3 nM | – | – |
| COC(=O)N[C@H](C(=O)N1C[C@]2(CCCOC2)C[C@H]1c1nc2ccc3cc(-c4ccc5c(ccc6nc([C@@H]7C[C@@H]8COC[C@@H]8N7C(=O)[C@@H](NC(=O)OC)C(C)C)[nH]c65)c4)ccc3c2[nH]1)C(C)C [Compound 36] | 1 nM | 0.051 nM | 0.2 nM | – | – |
| COC(=O)N[C@H](C(=O)N1C[C@]2(CCCO2)C[C@H]1c1ncc(-c2ccc(-c3ccc4c(ccc5nc([C@@H]6CCCN6C(=O)[C@@H](NC(=O)OC)C(C)C)[nH]c54)c3)cc2)[nH]1)C(C)C [Example 81] | 3 nM | 0.013 nM | 0.4 nM | – | – |
| COC(=O)N[C@H](C(=O)N1CCC[C@H]1c1ncc(-c2ccc(-c3ccc4c(ccc5nc([C@@H]6C[C@]7(CCOC7)CN6C(=O)[C@@H](NC(=O)OC)C(C)C)[nH]c54)c3)cc2)[nH]1)C(C)C [Compound 51] | 2 nM | 0.016 nM | 0.4 nM | – | – |
| COC(=O)N[C@H](C(=O)N1CC2(CC2)C[C@H]1c1ncc(-c2ccc(-c3ccc4c(ccc5nc([C@@H]6C[C@@]7(CCCOC7)CN6C(=O)[C@@H](NC(=O)OC)C(C)C)[nH]c54)c3)cc2)[nH]1)C(C)C [Compound 8] | 0.9 nM | 0.01 nM | 0.2 nM | – | – |
| COC(=O)N[C@H](C(=O)N1C[C@]2(CCCOC2)C[C@H]1c1ncc(-c2ccc(-c3ccc4c(ccc5nc([C@@H]6C[C@@H]7CCCC[C@@H]7N6C(=O)[C@@H](NC(=O)OC)C(C)C)[nH]c54)c3)cc2)[nH]1)C(C)C [Compound 29] | 0.3 nM | 0.004 nM | 0.1 nM | – | – |
| COC(=O)N[C@H](C(=O)N1C[C@]2(CCCOC2)C[C@H]1c1ncc(-c2ccc(-c3ccc4c(ccc5nc([C@@H]6CCCN6C(=O)[C@@H](NC(=O)OC)C(C)C)[nH]c54)c3)cc2)[nH]1)C(C)C [Compound 47] | 0.08 nM | 0.016 nM | 1 nM | – | – |
| COC(=O)N[C@H](C(=O)N1C[C@]2(CCCOC2)C[C@H]1c1nc2ccc3cc(-c4ccc5c(ccc6nc([C@@H]7C[C@@H]8CCC[C@@H]8N7C(=O)[C@@H](NC(=O)OC)C(C)C)[nH]c65)c4)ccc3c2[nH]1)C(C)C [Compound 9] | 0.06 nM | 0.006 nM | 0.07 nM | – | – |
| COC(=O)N[C@H](C(=O)N1[C@H](c2nc3ccc4cc(-c5ccc(-c6cnc([C@@H]7C[C@@]8(CCCOC8)CN7C(=O)[C@H](NC(=O)OC)C7C[C@@H](C)O[C@H](C)C7)[nH]6)cc5)ccc4c3[nH]2)C[C@@H]2CCCC[C@@H]21)C(C)C (stereo in doubt) [Compound 39] | 48 nM | 0.029 nM | 4 nM | – | – |
| COC(=O)N[C@H](C(=O)N1C[C@]2(CCCOC2)C[C@H]1c1ncc(-c2ccc3cc4cc(-c5cnc([C@@H]6C[C@@H]7CCCC[C@@H]7N6C(=O)[C@@H](NC(=O)OC)C(C)C)[nH]5)ccc4cc3c2)[nH]1)C(C)C [Compound 13] | 0.9 nM | 0.021 nM | 0.8 nM | – | – |
| COC(=O)N[C@H](C(=O)N1CCC[C@H]1c1ncc(-c2ccc(-c3ccc4c(c3)OCc3nc([C@@H]5C[C@@]6(CCCOC6)CN5C(=O)[C@@H](NC(=O)OC)C(C)C)[nH]c3-4)cc2)[nH]1)C(C)C [Compound 33] | 0.2 nM | 0.038 nM | 0.3 nM | – | – |
| COC(=O)N[C@H](C(=O)N1C[C@]2(CCCOC2)C[C@H]1c1nc2ccc3cc(-c4ccc5c(ccc6nc([C@@H]7C[C@@H]8C[C@@H]8N7C(=O)[C@@H](NC(=O)OC)C(C)C)[nH]c65)c4)ccc3c2[nH]1)C(C)C [Compound 21] | 0.09 nM | 0.03 nM | 1 nM | – | – |
| COC(=O)N[C@H](C(=O)N1C[C@]2(CCCOC2)C[C@H]1c1ncc(-c2ccc(-c3ccc4c(ccc5nc([C@@H]6C[C@@H]7COC[C@@H]7N6C(=O)[C@@H](NC(=O)OC)C(C)C)[nH]c54)c3)cc2)[nH]1)C(C)C [Compound 35] | 2 nM | 0.049 nM | 0.5 nM | – | – |
| COC(=O)N[C@H](C(=O)N1C[C@]2(CCOC2)C[C@H]1c1ncc(-c2ccc(-c3ccc4c(ccc5nc([C@@H]6CCCN6C(=O)[C@@H](NC(=O)OC)C(C)C)[nH]c54)c3)cc2)[nH]1)C(C)C [Compound 26] | 2 nM | 0.022 nM | 11 nM | – | – |
| COC(=O)N[C@H](C(=O)N1CC2(CCOCC2)C[C@H]1c1ncc(-c2ccc(-c3ccc4c(ccc5nc([C@@H]6CCCN6C(=O)[C@@H](NC(=O)OC)C(C)C)[nH]c54)c3)cc2)[nH]1)C(C)C [Example 83] | 0.7 nM | 0.042 nM | 6 nM | – | – |
| COC(=O)N[C@H](C(=O)N1C[C@]2(CCCOC2)C[C@H]1c1ncc(-c2ccc(-c3ccc(-c4cnc([C@@H]5C[C@@H]6CCC[C@@H]6N5C(=O)[C@@H](NC(=O)OC)C(C)C)[nH]4)cc3)cc2)[nH]1)C(C)C [Compound 37] | 3 nM | 0.009 nM | 0.5 nM | – | – |
| COC(=O)N[C@H](C(=O)N1C[C@]2(CCCOC2)C[C@H]1c1ncc(-c2ccc(-c3ccc4c(ccc5nc([C@@H]6CCCN6C(=O)[C@@H](NC(=O)OC)C(C)C)[nH]c54)c3)cc2)[nH]1)C(C)C [drawing 233] | – | – | – | 0.08 nM | 1 nM |
